Measurements: PMC3130629 (Free radical biology & medicine, 2011)
pKi: −log10 of the molar value.

Legend:
[1] = test system: XO bound to BAEC GAGs (endothelial cell-bound XO); test: Inhibition of endothelial cell-bound XO, uric acid formation; assay type: cell-based, bovine; conditions: for Inhibition of endothelial cell GAG-bound XO (uric acid formation): even at concentrations above those tolerated clinically (e.g. 200 μM)
[2] = test system: xanthine oxidase (XO); test: O2•- formation from reaction of inhibitor with purified XO; assay type: biochemical; conditions: XO 10 mU/ml; allopurinol 50 μM, febuxostat 100 nM; cytochrome c reduction
[3] = test system: XO bound to BAEC GAGs (endothelial cell-bound XO); test: Inhibition of endothelial cell-bound XO, extracellular O2•- by EPR with PPH; assay type: cell-based, bovine; conditions: xanthine 100 μM, 37°C
[4] = biological target: XO; conditions: read-out: Ki for XO; pH 8.5; cited from earlier work
[5] = cited from earlier work
[6] = biological target: xanthine oxidase (XO), free in solution (Bos taurus, UniProt P80457); test: Inhibition of XO free in solution, uric acid formation; assay type: biochemical; conditions: soluble and HS6B-XO, 0.96 and […] vs ref 16
Chain of xanthine oxidase (XO), free in solution (P80457 whole entry): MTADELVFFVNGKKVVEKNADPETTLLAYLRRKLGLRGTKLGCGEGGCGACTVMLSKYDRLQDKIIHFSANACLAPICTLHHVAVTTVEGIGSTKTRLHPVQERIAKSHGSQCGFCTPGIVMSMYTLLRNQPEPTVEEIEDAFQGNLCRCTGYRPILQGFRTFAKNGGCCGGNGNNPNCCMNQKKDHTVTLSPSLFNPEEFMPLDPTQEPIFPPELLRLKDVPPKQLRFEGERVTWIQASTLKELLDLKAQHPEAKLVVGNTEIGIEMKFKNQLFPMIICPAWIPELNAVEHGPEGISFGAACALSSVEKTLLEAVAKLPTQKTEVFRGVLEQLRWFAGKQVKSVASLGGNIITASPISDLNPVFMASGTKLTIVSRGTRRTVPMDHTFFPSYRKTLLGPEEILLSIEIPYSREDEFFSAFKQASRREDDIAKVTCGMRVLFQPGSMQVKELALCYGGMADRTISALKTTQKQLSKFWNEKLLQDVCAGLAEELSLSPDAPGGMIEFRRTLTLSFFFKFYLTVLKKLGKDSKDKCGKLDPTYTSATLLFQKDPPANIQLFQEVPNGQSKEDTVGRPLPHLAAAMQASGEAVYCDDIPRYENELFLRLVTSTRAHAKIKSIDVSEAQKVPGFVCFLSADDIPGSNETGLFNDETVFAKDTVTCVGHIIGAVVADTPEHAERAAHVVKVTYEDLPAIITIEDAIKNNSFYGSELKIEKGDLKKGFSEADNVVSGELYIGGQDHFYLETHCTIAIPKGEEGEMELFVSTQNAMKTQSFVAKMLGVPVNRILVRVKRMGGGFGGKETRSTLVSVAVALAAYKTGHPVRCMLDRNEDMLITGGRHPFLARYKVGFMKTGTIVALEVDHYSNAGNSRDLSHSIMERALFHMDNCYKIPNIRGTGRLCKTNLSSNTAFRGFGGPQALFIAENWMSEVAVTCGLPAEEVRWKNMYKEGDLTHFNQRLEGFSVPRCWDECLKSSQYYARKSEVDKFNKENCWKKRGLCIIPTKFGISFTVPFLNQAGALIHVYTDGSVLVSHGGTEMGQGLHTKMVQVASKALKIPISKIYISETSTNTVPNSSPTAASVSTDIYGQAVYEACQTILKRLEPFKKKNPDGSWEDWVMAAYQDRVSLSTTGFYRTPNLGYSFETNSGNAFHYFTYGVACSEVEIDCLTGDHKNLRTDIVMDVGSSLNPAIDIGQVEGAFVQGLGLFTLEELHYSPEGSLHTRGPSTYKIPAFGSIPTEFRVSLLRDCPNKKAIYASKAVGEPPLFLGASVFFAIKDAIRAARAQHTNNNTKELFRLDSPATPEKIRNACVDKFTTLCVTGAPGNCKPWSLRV

[7] = biological target: HS6B-XO (GAG-immobilized xanthine oxidase) (Bos taurus, UniProt P80457)
Chain of HS6B-XO (GAG-immobilized xanthine oxidase) (P80457 whole entry): as above

[8] = biological target: GAG-bound XOR; conditions: read-out: Ki, GAG-bound XOR; cited from earlier work
[9] = biological target: soluble XO; conditions: read-out: Ki, soluble XO; cited from earlier work

SMILES	Inhibition of uric acid formation from endothelial cell-bound XO ([1]; 25 nM febuxostat, xanthine 100 μM, 1 h)	O2•- formation on exposure of purified XO to the inhibitor [2]	Reduction of cell-bound O2•- production (EPR, PP• radical) ([3]; 50 nM) [%]	pKi [4]	Cmax ([5]; reported) [µM]	Ki (pH 7.4) higher than previously reported Ki (pH 8.5) [6]	Concentration giving complete inhibition of uric acid and O2•- production from HS6B-XO [7] [nM]	Inhibition of endothelial cell GAG-bound XO (uric acid formation) [1]	Reduction of cell-bound O2•- radical formation (EPR, PP• radical) ([3]; 200 μM) [%]	Concentrations seen clinically [5] [µM]	pKi [8]	pKi [9]
Cc1nc(-c2ccc(OCC(C)C)c(C#N)c2)sc1C(=O)O [febuxostat]	completely inhibited	no detectable O2 ^•-	100	9.92	15	~ 8 fold	≤ 50					
Oc1ncnc2[nH]ncc12 [allopurinol]		significant O2 ^•- formation		6.15				no more than 80%	80	20 to 90		
O=c1[nH]c(=O)c2c[nH]nc2[nH]1 [oxypurinol]								no more than 80%		20 to 90	6.39	6.64
